This note sets out measurements from patent US20090069408A1, “TRICYCLIC COMPOUNDS USEFUL IN TREATING IRON DISORDERS” (XENON PHARMACEUTICALS INC., priority 2007, published 2009).

The structures appear in SMILES notation. pIC50: −log10 of the molar value. Where a name gives a salt, the structure may show the parent alone. Some results are limits rather than exact numbers.

In the first data set the target is T1, DMT1 (Homo sapiens, UniProt P49281).
T1 sequence (P49281 1-568): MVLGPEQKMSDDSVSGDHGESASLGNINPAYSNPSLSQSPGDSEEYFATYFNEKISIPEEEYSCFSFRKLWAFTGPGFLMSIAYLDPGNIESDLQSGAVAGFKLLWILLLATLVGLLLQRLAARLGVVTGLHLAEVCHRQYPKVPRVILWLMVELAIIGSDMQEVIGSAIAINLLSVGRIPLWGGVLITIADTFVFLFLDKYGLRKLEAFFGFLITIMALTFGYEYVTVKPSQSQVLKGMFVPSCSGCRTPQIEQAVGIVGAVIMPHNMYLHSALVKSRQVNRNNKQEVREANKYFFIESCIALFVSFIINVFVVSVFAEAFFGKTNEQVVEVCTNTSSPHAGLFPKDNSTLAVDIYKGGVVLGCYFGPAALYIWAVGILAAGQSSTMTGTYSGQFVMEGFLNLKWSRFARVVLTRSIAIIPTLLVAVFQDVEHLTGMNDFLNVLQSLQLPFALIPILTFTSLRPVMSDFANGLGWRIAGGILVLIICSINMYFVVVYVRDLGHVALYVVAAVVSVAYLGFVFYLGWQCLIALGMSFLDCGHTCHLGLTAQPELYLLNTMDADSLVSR
The data set is described as follows: DMT1 Activity Assay (in vitro). It counts as cell-based. Conditions: read-out: IC50 Activity Level. An excerpt:
In particular, identification of the compounds of the invention ability to modulate, preferably to inhibit, DMT1 activity, can be assessed using a variety of in vitro and in vivo assays, for measuring uptake of reduced iron (Fe^2+). One such protocol involves the screening of chemical agents for ability to modulate the activity of DMT1 thereby identifying it as a modulating agent. The in vitro activity of DMT1 can be measured in cell based assays by either directly measuring iron flux (using a radioactively labelled iron ^55Fe) or by measuring the fluorescence of a cell permeable iron fluorophore such as calcein. Stable cell lines overexpressing DMT1 are exposed to ^55Fe or loaded with calcein and then compound is applied. […] Alternatively, in another format electrophysiological techniques can be used to measure the current or iron or other metals traversing the cell membrane with DMT1 in a Xenopus oocyte or other cell based system (Gunshin et al., Nature, 1997, 31; 388(6641):482-8).
This example discloses various in vitro assay for testing and profiling test agents against DMT1 stably expressed in cells of either an endogenous or recombinant origin. These assays can use stable cell lines overexpressing DMT1 or intestinal cells and intestinal tissue expressing endogenous DMT1. DMT1 function could also be assessed in other cell types that express DMT1. Of greatest relevance would be the erythrocytes (e.g. K562 cells) or hepatocytes (e.g. […]).
DMT1 function can be assessed in a number of ways, including monitoring fluorescence changes of an iron fluorophore (e.g. calcein), monitoring uptake of radiolabelled iron (^55Fe or ^59Fe) (Picard et al., J. Biol. Chem., 2000, 275(46):35738-45 and Wetli et al., Chem. Biol. 2006 September; 13(9):965-72), or by assessing the current or transport of iron and other metals into the cells or tissues using standard electrophysiological techniques (Gunshin et al., Nature, 1997, 388(6641):482-8.).
Variations of these assays involve alterations of incubation times, the iron status of the cells and tissues (which may be modulated by chemical chelators or by harvesting from iron deficient animals), the metal cation detected and the pH of the reaction can generally be made by conventional techniques known to those skilled in the art.
Take `N=C(N)SCc1cccc2c1Oc1c(CSC(=N)N)cccc1S2` [Example 1.12, phenoxathiine-4,6-diylbis(methylene) dicarbamimidothioate dihydrobromide]: the pIC50 is 6.00 to 7.00. On to `N=C(N)SCc1cccc2c1-c1c(CSC(=N)N)cccc1C2=O` [Example 1.15, (9-oxo-9H-fluorene-4,5-diyl)bis(methylene) dicarbamimidothioate dihydrobromide], for which the pIC50 is ≤ 6.00. Take `CC(C)(C)c1cc(CSC(=N)N)c2c(c1)C(C)(C)c1cc(C(C)(C)C)cc(CSC(=N)N)c1O2` [Example 4, (2,7-di-tert-butyl-9,9-dimethyl-9H-xanthene-4,5-diyl)bis(methylene) dicarbamimidothioate dihydrobromide]: the pIC50 was ≤ 6.00. The same measure, in the same setting: the result for `Cc1ccc2c(oc3c(CSC(=N)N)c(C)ccc32)c1CSC(=N)N` [Example 1.3, (3,7-dimethyldibenzo[b,d]furan-4,6-diyl)bis(methylene) dicarbamimidothioate dihydrobromide] reads 6.00 to 7.00; that for `N=C(N)SCc1cccc2c1sc1c(CSC(=N)N)c(Br)ccc12` [Example 1.2, (3-bromodibenzo[b,d]thiophene-4,6-diyl)bis(methylene) dicarbamimidothioate dihydrobromide], 6.00 to 7.00; that for `N=C(N)SCc1cccc2c1sc1c(CSC(=N)N)cccc12` [Example 1, dibenzo[b,d]thiophene-4,6-diylbis(methylene) dicarbamimidothioate dihydrobromide], 6.00 to 7.00. For the compound `N=C(N)SCc1cccc2c(=O)c3cccc(CSC(=N)N)c3oc12` [Example 1.16, (9-oxo-9H-xanthene-4,5-diyl)bis(methylene) dicarbamimidothioate dihydrobromide], the pIC50 is ≤ 6.00.

Consider `N=C(N)SCc1cc(F)cc2c1sc1c(CSC(=N)N)cc(Cl)cc12` [Example 1.11, (2-chloro-8-fluorodibenzo[b,d]thiophene-4,6-diyl)bis(methylene) dicarbamimidothioate dihydrobromide], for which the pIC50 was 7.00 to 8.00. In the case of `N=C(N)SCc1cc(F)cc2c1-c1c(CSC(=N)N)cc(F)cc1-2` [Example 5, (3,6-difluorobiphenylene-1,8-diyl)bis(methylene) dicarbamimidothioate dihydrobromide], the pIC50 is 7.00 to 8.00.

Tested on in the next data set: not given
Experiment: not given
Settings: not given
As for `N=C(N)SCc1cccc2cc3cccc(CSC(=N)N)c3cc12` (as salt: hydrobromid) [Example 1.9, anthracene-1,8-diylbis(methylene) dicarbamimidothioate dihydrobromide], the melting point was > 250 °C. Take `N=C(N)SCc1cccc2sc3cccc(CSC(=N)N)c3c12` (as salt: hydrobromid) [Example 1.14, dibenzo[b,d]thiophene-1,9-diylbis(methylene) dicarbamimidothioate dihydrobromide]: the melting point was in the range of 228 to 230 °C.

Turning to `Cc1c2cccc(CSC(=N)N)c2nc2c(CSC(=N)N)cccc12` (as salt: hydrobromid) [Example 1.17, (9-methylacridine-4,5-diyl)bis(methylene) dicarbamimidothioate dihydrobromide], the melting point is > 270 °C (dec.). On the same count and under the same terms, the result for `N=C(N)SCc1cccc2c1sc1c(CSC(=N)N)cc(F)cc12` (as salt: hydrobromid) [Example 1.10, (2-fluorodibenzo[b,d]thiophene-4,6-diyl)bis(methylene) dicarbamimidothioate dihydrobromide] reads > 230 °C. In the case of `N=C(N)SCc1cccc2c1Oc1c(CSC(=N)N)cccc1S2` (as salt: hydrobromid) [Example 1.12, phenoxathiine-4,6-diylbis(methylene) dicarbamimidothioate dihydrobromide], the melting point is > 230 °C. The same measure, in the same setting: the same measure for `N=C(N)SCc1cc(Br)cc2c1oc1c(CSC(=N)N)cc(Br)cc12` (as salt: hydrobromid) [Example 1.7, (2,8-dibromodibenzo[b,d]furan-4,6-diyl)bis(methylene) dicarbamimidothioate dihydrobromide]: > 220 °C; for `N=C(N)SCc1cccc2c1oc1c(CSC(=N)N)cc(F)cc12` (as salt: hydrobromid) [Example 1.6, (2-fluorodibenzo[b,d]furan-4,6-diyl)bis(methylene) dicarbamimidothioate dihydrobromide]: > 220 °C. Regarding `N=C(N)SCc1cccc2c(=O)c3cccc(CSC(=N)N)c3oc12` (as salt: hydrobromid) [Example 1.16, (9-oxo-9H-xanthene-4,5-diyl)bis(methylene) dicarbamimidothioate dihydrobromide], the melting point is > 230 °C.

On to `N=C(N)SCc1cc(F)cc2c1-c1c(CSC(=N)N)cc(F)cc1-2` (as salt: hydrobromid) [Example 5, (3,6-difluorobiphenylene-1,8-diyl)bis(methylene) dicarbamimidothioate dihydrobromide], for which the melting point was > 250 °C.

With `Cc1ccc2c(oc3c(CSC(=N)N)c(C)ccc32)c1CSC(=N)N` (as salt: hydrobromid) [Example 1.3, (3,7-dimethyldibenzo[b,d]furan-4,6-diyl)bis(methylene) dicarbamimidothioate dihydrobromide], the melting point was > 220 °C. Turning to `N=C(N)SCc1cccc2c1-c1c(cccc1CSC(=N)N)CSC2` (as salt: hydrobromid) [Example 1.19, (5,7-dihydrodibenzo[c,e]thiepine-1,11-diyl)bis(methylene) dicarbamimidothioate dihydrobromide], the melting point was in the range of 155 to 158 °C.

In turn, `N=C(N)SCc1cccc2c1-c1c(CSC(=N)N)cccc1C2=O` (as salt: hydrobromid) [Example 1.15, (9-oxo-9H-fluorene-4,5-diyl)bis(methylene) dicarbamimidothioate dihydrobromide] had a melting point of 218 to 220 °C.

In general, pIC50 refers to the IC50 on a negative log10 scale, so that one unit is a factor of ten. Broadly, the melting point is the temperature of the solid-liquid transition.
